Data published in US6399654B1, “Biflavanoids and derivatives thereof as antiviral agents” (priority 1995, dated 2002).
Where a name gives a salt, the structure may show the parent alone. Read-outs that look alike come from different tables or passages of the source.

Experiments:
Measles Virus [1] = experiment: Measles virus neutral red dye uptake in BSC-1 cells; format: cell-based
[2] = test system: Respiratory Syncytial Virus; experiment: microbe, parasite or virus in culture; format: cell-based; settings: Respiratory Syncytial Virus
Influenza B Panama/45/90 [3] = experiment: microbe, parasite or virus in culture; format: cell-based
[4] = test system: African green monkey kidney (MA-104) cells; settings: for CPI Inhibition IC50 (cytotoxic): Parainfluenza Type 3 Virus test; for CPE Inhibition IC50 (cytotoxic): Respiratory Syncytial Virus test
[5] = test system: African green monkey kidney (BSC-1) cells; settings: Measles Virus test
[6] = test system: Human lung carcinoma (A549) cells
[7] = test system: Influenza A (H3N2) Beijing/32/92; experiment: microbe, parasite or virus in culture; format: cell-based, influenza A virus; settings: Influenza A (H3N2) Beijing/32/92
[8] = test system: African green monkey kidney (BSC-1) cells
[9] = test system: Influenza A (H3N2) Beijing/32/92; experiment: microbe, parasite or virus in culture; format: cell-based, influenza A virus; settings: Influenza A (H3N2) Beijing/32/92; remark: listed apart in the source
[10] = test system: Parainfluenza Type 3 Virus; experiment: organism not typed; format: cell-based; settings: Parainfluenza Type 3 Virus
[11] = test system: Madin Darby canine kidney (MDCK) cells; settings: for CPE Inhibition IC50 (50% cell inhibitory (cytotoxic) concentration): Influenza A (H1N1) test
HSV-1 = HSV-1 CPE inhibition in HFF cells; settings: HFF Cells
HCMV = HCMV CPE inhibition in HFF cells; settings: HFF Cells
Adenovirus Type 5 [12] = experiment: microbe, parasite or virus in culture; format: cell-based
Measles Virus [13] = experiment: microbe, parasite or virus in culture; format: cell-based; settings: Measles Virus
[14] = test system: Madin Darby canine kidney (MDCK) cells
VZV = VZV plaque reduction assay in HFF cells; settings: for VZV Plaque Reduction EC50 / VZV SI (CC50/EC50): HFF Cells
[15] = test system: Influenza A (H1N1) Texas/36/91; experiment: microbe, parasite or virus in culture; format: cell-based, influenza A virus; settings: Influenza A (H1N1) Texas/36/91
[16] = test system: Respiratory Syncytial Virus; experiment: microbe, parasite or virus in culture; format: cell-based; settings: Respiratory Syncytial Virus; remark: listed apart in the source
Adenovirus Type 5 [17] = experiment: Adenovirus type 5 neutral red dye uptake in A549 cells; format: cell-based; settings: Adenovirus Type 5
[18] = test system: Human lung carcinoma (A549) cells; settings: Adenovirus Type 5 test
Influenza B Panama/45/90 [19] = experiment: microbe, parasite or virus in culture; format: cell-based; settings: Influenza B Panama/45/90
[20] = test system: Influenza A (H1N1) Texas/36/91; experiment: microbe, parasite or virus in culture; format: cell-based, influenza A virus; settings: Influenza A (H1N1) Texas/36/91; remark: listed apart in the source
[21] = test system: Parainfluenza Type 3 Virus; experiment: organism not typed; format: cell-based
Hepatitis B Virus (HBV) = experiment: Inhibition of HBV replication in 2.2.15 cells, extracellular (virion) HBV DNA; settings: for anti-HBV activity (in words) / EC50 / EC90: 2.2.15 cells; for EC50: read-out: EC50 (50% effective dose), HBV Virion; for EC50 / EC90: extracellular (virion) HBV DNA, 9 days treatment; for EC90: read-out: EC90 (90% effective dose), HBV Virion; for SI (CC50/EC90), HBV Virion: selective index;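 on all read-outs here: extracellular virion HBV DNA in culture medium measured by slot blot hybridization with a 32P-labeled HBV probe, quantified against HBV DNA standards, after 9 days of daily dosing, compared with day 0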
HSV-2 = HSV-2 CPE inhibition in HFF cells; settings: HFF Cells
HIV-1 RT = target: T1, HIV-1 RT (Human immunodeficiency virus type 1 group M subtype B, UniProt P03366); experiment: Anti-HIV-1 RT assay (recombinant enzyme); format: biochemical; settings: for Anti-HIV-1 RT IC50: values in parentheses or in words
T1 construct: made in house; host or cells: Escherichia coli

adenovirus type 1 = experiment: Activity against adenovirus type 1; format: cell-based; settings: Human mastadenovirus C
[22] = Cytotoxicity in uninfected PHA-stimulated human PBM cells; settings: human
HIV-1 (strain LAV-1) = experiment: microbe, parasite or virus in culture; format: cell-based; settings: for Selective Index (SI): PBM cells

## CC(=O)Oc1ccc([C@@H]2CC(=O)c3c(cc(OC(C)=O)c(-c4c(OC(C)=O)cc5c(c4OC(C)=O)C(=O)C[C@@H](c4ccc(OC(C)=O)cc4)O5)c3OC(C)=O)O2)cc1 [Succedaneaflavanone hexaacetate (12), succedaneaflavanone hexaacetate]
Measles Virus [1]
  Neutral Red EC50: <2 µg/mL
[2]
  Neutral Red EC50: 6 µg/mL
Influenza B Panama/45/90 [3]
  Neutral Red EC50: 5.9 µg/mL
[4]
  CPI Inhibition IC50 (cytotoxic): ˜14 ug/ml
  CPE Inhibition IC50 (cytotoxic): 4 µg/mL
[5]
  CPI Inhibition IC50 (cytotoxic): <4 µg/mL
[6]
  Neutral Red IC50 (cytotoxic): 6 µg/mL
[7]
  CPE Inhibition EC50: 8.8 µg/mL
[8]
  Neutral Red IC50 (cytotoxic): <200 µg/mL
[9]
  Neutral Red EC50: 5.6 µg/mL
[10]
  CPI Inhibition EC50: >10 µg/mL
[11]
  CPE Inhibition IC50 (50% cell inhibitory (cytotoxic) concentration): 8.2 µg/mL
[11]; Influenza A (H3N2) test
  CPE Inhibition IC50 (cytotoxic): 12 µg/mL
[11]; Influenza B test
  CPE Inhibition IC50 (cytotoxic): 12 µg/mL
HSV-1
  HSV-1 CPE Inhibition EC50: >4 µg/mL
  HSV-1 SI (CC50/EC50): <4.4
HCMV
  HCMV CPE Inhibition EC50: >4.0 µg/mL
  HCMV SI (CC50/EC50): <3.5
Adenovirus Type 5 [12]
  CPE Inhibition EC50: 20 µg/mL
HFF Cells
  HCMV CPE Inhibition CC50: 14.4 µg/mL
  HSV-1 CPE Inhibition CC50: 17.7 µg/mL
  HSV-2 CPE Inhibition CC50: 17.7 µg/mL
  VZV Plaque Reduction CC50: 68.0 µg/mL
Measles Virus [13]
  CPI Inhibition EC50: ˜3.2 ug/ml
[14]; Influenza A (H1N1) test
  Neutral Red IC50 (cytotoxic): 7.4 µg/mL
[14]; Influenza A (H3N2) test
  Neutral Red IC50 (cytotoxic): 5.6 µg/mL
[14]; Influenza B test
  Neutral Red IC50 (cytotoxic): 5.9 µg/mL
VZV
  activity against VZV (in words): moderately active
  VZV Plaque Reduction EC50: 7.1 µg/mL
  VZV SI (CC50/EC50): 9.6
[15]
  Neutral Red EC50: 7.4 µg/mL
[16]
  CPE Inhibition EC50: >3 µg/mL
Adenovirus Type 5 [17]
  Neutral Red EC50: 6 µg/mL
[18]
  CPE Inhibition IC50 (cytotoxic): 19 µg/mL
Influenza B Panama/45/90 [19]
  CPE Inhibition EC50: 5.4 µg/mL
[20]
  CPE Inhibition EC50: 5.6 µg/mL
[21]
  Neutral Red EC50: >32 µg/mL
Hepatitis B Virus (HBV)
  anti-HBV activity (in words): moderate anti-HBV activity
  EC50: 3.5 µM
  EC90: 128 µM
  SI (CC50/EC90), HBV Virion: 1.9
HSV-2
  HSV-2 CPE Inhibition EC50: >4.0 µg/mL
  HSV-2 SI (CC50/EC50): <4.4
HIV-1 RT
  Anti-HIV-1 RT % Inhibition at 200 μg/ml: 0.00%
  Anti-HIV-1 RT IC50: Inactive

## CC(=O)Oc1ccc([C@@H]2CC(=O)c3c(cc(OC(C)=O)c(-c4c(OC(C)=O)cc(OC(C)=O)c5c4O[C@H](c4ccc(OC(C)=O)cc4)CC5=O)c3OC(C)=O)O2)cc1 [Rhusflavanone hexaacetate (10), rhusflavanone hexaacetate]
Measles Virus [1]
  Neutral Red EC50: <10 µg/mL
[2]
  Neutral Red EC50: 19 µg/mL
[4]
  CPI Inhibition IC50 (cytotoxic): 22 µg/mL
  CPE Inhibition IC50 (cytotoxic): 13 µg/mL
[5]
  CPI Inhibition IC50 (cytotoxic): <4 µg/mL
[6]
  Neutral Red IC50 (cytotoxic): 26 µg/mL
[7]
  CPE Inhibition EC50: >10 µg/mL
[8]
  Neutral Red IC50 (cytotoxic): <11 µg/mL
[9]
  Neutral Red EC50: 5.4 µg/mL
[10]
  CPI Inhibition EC50: >10 µg/mL
[11]
  CPE Inhibition IC50 (50% cell inhibitory (cytotoxic) concentration): 7.2 µg/mL
[11]; Influenza A (H3N2) test
  CPE Inhibition IC50 (cytotoxic): 5.6 µg/mL
[11]; Influenza B test
  CPE Inhibition IC50 (cytotoxic): 4.2 µg/mL
HSV-1
  HSV-1 CPE Inhibition EC50: >4.0 µg/mL
  HSV-1 SI (CC50/EC50): <4.6
HCMV
  HCMV CPE Inhibition EC50: >4.0 µg/mL
  HCMV SI (CC50/EC50): <3.3
Adenovirus Type 5 [12]
  CPE Inhibition EC50: >10 µg/mL
HFF Cells
  HCMV CPE Inhibition CC50: 13.4 µg/mL
  HSV-1 CPE Inhibition CC50: 18.5 µg/mL
  HSV-2 CPE Inhibition CC50: 18.5 µg/mL
  VZV Plaque Reduction CC50: 46.7 µg/mL
Measles Virus [13]
  CPI Inhibition EC50: ˜3 ug/ml
[14]; Influenza A (H1N1) test
  Neutral Red IC50 (cytotoxic): 5.7 µg/mL
[14]; Influenza A (H3N2) test
  Neutral Red IC50 (cytotoxic): 5.3 µg/mL
VZV
  VZV Plaque Reduction EC50: 11.3 µg/mL
  VZV SI (CC50/EC50): 4.1
[15]
  Neutral Red EC50: 5.6 µg/mL
[16]
  CPE Inhibition EC50: >10 µg/mL
Adenovirus Type 5 [17]
  Neutral Red EC50: 19 µg/mL
[18]
  CPE Inhibition IC50 (cytotoxic): 22 µg/mL
Influenza B Panama/45/90 [19]
  CPE Inhibition EC50: >10 µg/mL
[20]
  CPE Inhibition EC50: >10 µg/mL
[21]
  Neutral Red EC50: 32 µg/mL
Hepatitis B Virus (HBV)
  anti-HBV activity (in words): moderate anti-HBV activity
  SI (CC50/EC90), HBV Virion: 2.8
HSV-2
  HSV-2 CPE Inhibition EC50: >4.0 µg/mL
  HSV-2 SI (CC50/EC50): <4.6
HIV-1 RT
  Anti-HIV-1 RT % Inhibition at 200 μg/ml: 0.00%
  Anti-HIV-1 RT IC50: Inactive

## Nc1ncnc2c1ncn2C[C@@H](CO)OCP(=O)(O)O [HPMPA, (S)-1-(3-hydroxy-2-phosophonylmethoxypropyl)adenine, reference compound]
[6]
  Neutral Red IC50 (cytotoxic): 40 µg/mL
Adenovirus Type 5 [12]
  CPE Inhibition EC50: 30 µg/mL
Adenovirus Type 5 [17]
  Neutral Red EC50: 8 µg/mL
[18]
  CPE Inhibition IC50 (cytotoxic): 80 µg/mL

## O=c1cc(-c2ccc(O)c(-c3c(O)cc4oc(-c5ccc(O)cc5)cc(=O)c4c3O)c2)oc2cc(O)cc(O)c12 [Robustaflavone sodium salt, Robustaflavone tetrasodium salt]
Adenovirus type 1
  EC50: 32 µM
Adenovirus type 1; 50% cell inhibitory (cytotoxic) concentration, read-out: IC50 in the adenovirus type 1 test
  IC50: > 160 µM
Hepatitis B Virus (HBV); in vitro assay against HBV
  fold less active/potent than robustaflavone against HBV: approximately 10 fold
Hepatitis B Virus (HBV)
  EC50: 3.1 µM
  EC90: 12 µM
  SI (CC50/EC90), HBV Virion: 88

## O=C1c2c(O)cc(O)cc2O[C@H](c2ccc(O)cc2)[C@H]1c1c(O)cc(O)c2c(=O)cc(-c3ccc(O)c(O)c3)oc12 [Morelloflavone(7), morelloflavone]
[22]
  IC50: 82 µM
HIV-1 (strain LAV-1)
  anti-HIV-1 activity in PBM cells (in words): potent inhibitory activity
  Selective Index (SI): 12
HIV-1 (strain LAV-1); Human immunodeficiency virus 1, PBMC, human PBM cells infected with HIV-1 (strain LAV), read-out: Ant-HIV-1 in PBM cells EC50
  EC50: 5.7 µM
HIV-1 (strain LAV-1); Human immunodeficiency virus 1, PBMC, read-out: EC50 (50% effective dose) in PBM cells infected with HIV-1, whole cell assay
  EC50: 5.7 µg/mL
HIV-1 (strain LAV-1); listed as Morelloflavone
  Selective Index (SI): approximately 10
HIV-1 (strain LAV-1); human PBM cells infected with HIV-1 (strain LAV), read-out: Ant-HIV-1 in PBM cells EC50
  EC50: 8 µM
HIV-1 (strain LAV-1); whole cell assay
  EC50 (50% effective dose) in PBM cells infected with HIV-1: 8.0 µg/mL
HIV-1 RT; Anti-HIV-1 RT IC50, values in parentheses or in words
  IC50: 116 µM
HIV-1 RT; HIV-1 RT IC50 (50% inhibition dose)
  IC50: 116 µM
HIV-1 RT; read-out: Anti-HIV-1 RT % Inhibition at 200 μg/ml
  inhibition at 200 µg/mL: 99.2%
